From patent publication US20110294855A1, “Active Compound Combinations” (BAYER CROPSCIENCE AG, priority 2009, published 2011)

System: Microdochium nivale
Test: Microdochium nivale test (lawn)/protective
Format: in vivo
Details: lawn (100% Agrostis stolonifera), preventive application at 2000, 1000, 500 and 100 g/ha, inoculation 24 hours later, scoring after 5, 7, 14 and 21 days
Method: Microdochium Nivale Test (Lawn)/Protective
Lawn seed (100% Agrostis stolonifera) was sown in dishes of the dimensions 38 cm×15 cm×9 cm. 7 days after sowing, the lawn was cut prior to preventive guanidinium hydroxide application at application rates of 2000, 1000, 500 and 100 g/ha. The water application rates were 1000 l/ha (converted). 24 hours after the preventive application of the active compound, the lawn was inoculated by placing of wheat grains infected with Microdochium nivale. In each case 3 wheat grains were placed into a single dish. Scoring of the subsequent fungal growth in the lawn dishes was carried out after 5, 7, 14 and 21 days. In the dishes which had been treated with guanidinium hydroxide, an inhibition of the growth of Microdochium nivale of up to 30% (Abbott) was observed.

## N=C(N)N.O [guanidinium hydroxide]
  inhibition of the growth of Microdochium nivale (Abbott): up to 30%
